Experimental data: US20250339409A1, “USES OF PAN BET INHIBITORS” (VYNE THERAPEUTICS INC., priority 2021, published 2025)
Marks after values point to notes of the source that are not given here.

Test system: anti collagen antibodies induced arthritis (ACAIA)
Assay: Anti collagen antibodies induced arthritis (ACAIA) in mice, intra-articular treatment: paw thickness, arthritis clinical score, body weight;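 note: mouse arthritis induced by IV anti-collagen mAb on day 0 plus IP LPS on day 4, with body weight, caliper paw thickness and 0-4 paw score tracked against a day 0 baseline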
[1] = 0.01 mg/kg IA (Group 5), Baseline
[2] = 0.01 mg/kg IA (Group 5), Day 10
[3] = 0.01 mg/kg IA (Group 5), Day 12
[4] = 0.1 mg/kg IA (Group 4), Baseline

Cn1cc(-c2cccc(O)c2Oc2ccccc2)c2cc[nH]c2c1=O [BETi1]
Clinical score of treated leg (Avg.) [1]: 0.00 points
Paw thickness Avg. Delta untreated -treated [1]: −0.08 mm
Paw thickness of treated leg (Avg.) [1]: 2.06 mm
Paw thickness of untreated leg (Avg.) [1]: 1.98 mm
Percent change of weight per day (Av) [1]: 100.00%
Δ clinical score untreated -treated, Avg. Delta [1]: 0.00 points
Clinical score of treated leg (Avg.) (0.01 mg/kg IA (Group 5), Day 3): 0.00 points
Paw thickness Avg. Delta untreated -treated (0.01 mg/kg IA (Group 5), Day 3): 0.02 mm
Paw thickness of treated leg (Avg.) (0.01 mg/kg IA (Group 5), Day 3): 2.12 mm
Paw thickness of untreated leg (Avg.) (0.01 mg/kg IA (Group 5), Day 3): 2.14 mm
Percent change of weight per day (Av) (0.01 mg/kg IA (Group 5), Day 3): 99.39%
Δ clinical score untreated -treated, Avg. Delta (0.01 mg/kg IA (Group 5), Day 3): 0.00 points
Clinical score of treated leg (Avg.) (0.01 mg/kg IA (Group 5), Day 4): 0.00 points
Paw thickness Avg. Delta untreated -treated (0.01 mg/kg IA (Group 5), Day 4): 0.00 mm
Paw thickness of treated leg (Avg.) (0.01 mg/kg IA (Group 5), Day 4): 2.18 mm
Paw thickness of untreated leg (Avg.) (0.01 mg/kg IA (Group 5), Day 4): 2.18 mm
Percent change of weight per day (Av) (0.01 mg/kg IA (Group 5), Day 4): 96.62%
Δ clinical score untreated -treated, Avg. Delta (0.01 mg/kg IA (Group 5), Day 4): 0.00 points
Clinical score of treated leg (Avg.) (0.01 mg/kg IA (Group 5), Day 5): 0.00 points
Paw thickness Avg. Delta untreated -treated (0.01 mg/kg IA (Group 5), Day 5): 0.00 mm
Paw thickness of treated leg (Avg.) (0.01 mg/kg IA (Group 5), Day 5): 2.18 mm
Paw thickness of untreated leg (Avg.) (0.01 mg/kg IA (Group 5), Day 5): 2.17 mm
Percent change of weight per day (Av) (0.01 mg/kg IA (Group 5), Day 5): 89.80%
Δ clinical score untreated -treated, Avg. Delta (0.01 mg/kg IA (Group 5), Day 5): 0.00 points
Clinical score of treated leg (Avg.) (0.01 mg/kg IA (Group 5), Day 6): 0.71 points
Paw thickness Avg. Delta untreated -treated (0.01 mg/kg IA (Group 5), Day 6): 0.05 mm
Paw thickness of treated leg (Avg.) (0.01 mg/kg IA (Group 5), Day 6): 2.34 mm
Paw thickness of untreated leg (Avg.) (0.01 mg/kg IA (Group 5), Day 6): 2.39 mm
Percent change of weight per day (Av) (0.01 mg/kg IA (Group 5), Day 6): 88.03%
Δ clinical score untreated -treated, Avg. Delta (0.01 mg/kg IA (Group 5), Day 6): 0.14 points
Clinical score of treated leg (Avg.) (0.01 mg/kg IA (Group 5), Day 7): 1.86 points
Paw thickness Avg. Delta untreated -treated (0.01 mg/kg IA (Group 5), Day 7): 0.02 mm
Paw thickness of treated leg (Avg.) (0.01 mg/kg IA (Group 5), Day 7): 2.60 mm
Paw thickness of untreated leg (Avg.) (0.01 mg/kg IA (Group 5), Day 7): 2.62 mm
Percent change of weight per day (Av) (0.01 mg/kg IA (Group 5), Day 7): 91.87%
Δ clinical score untreated -treated, Avg. Delta (0.01 mg/kg IA (Group 5), Day 7): −0.29 points
Clinical score of treated leg (Avg.) (0.01 mg/kg IA (Group 5), Day 8): 1.86 points
Paw thickness Avg. Delta untreated -treated (0.01 mg/kg IA (Group 5), Day 8): −0.01 mm
Paw thickness of treated leg (Avg.) (0.01 mg/kg IA (Group 5), Day 8): 2.64 mm
Paw thickness of untreated leg (Avg.) (0.01 mg/kg IA (Group 5), Day 8): 2.63 mm
Percent change of weight per day (Av) (0.01 mg/kg IA (Group 5), Day 8): 89.85%
Δ clinical score untreated -treated, Avg. Delta (0.01 mg/kg IA (Group 5), Day 8): −0.14 points
Clinical score of treated leg (Avg.) [2]: 2.14 points
Paw thickness Avg. Delta untreated -treated [2]: 0.05 mm
Paw thickness of treated leg (Avg.) [2]: 2.68 mm
Paw thickness of untreated leg (Avg.) [2]: 2.73 mm
Percent change of weight per day (Av) [2]: 89.71%
Δ clinical score untreated -treated, Avg. Delta [2]: 0.00 points
Clinical score of treated leg (Avg.) [3]: 2.43 points
Paw thickness Avg. Delta untreated -treated [3]: −0.20 mm
Paw thickness of treated leg (Avg.) [3]: 3.01 mm
Paw thickness of untreated leg (Avg.) [3]: 2.80 mm
Percent change of weight per day (Av) [3]: 92.75%
Δ clinical score untreated -treated, Avg. Delta [3]: −1.00 points
Clinical score of treated leg (Avg.) [4]: 0.00 points
Paw thickness Avg. Delta untreated -treated [4]: −0.04 mm
Paw thickness of treated leg (Avg.) [4]: 2.06 mm
Paw thickness of untreated leg (Avg.) [4]: 2.01 mm
Percent change of weight per day (Av) [4]: 100.00%
Δ clinical score untreated -treated, Avg. Delta [4]: 0.00 points
Clinical score of treated leg (Avg.) (0.1 mg/kg IA (Group 4), Day 3): 0.00 points
Paw thickness Avg. Delta untreated -treated (0.1 mg/kg IA (Group 4), Day 3): −0.05 mm
Paw thickness of treated leg (Avg.) (0.1 mg/kg IA (Group 4), Day 3): 2.18 mm
Paw thickness of untreated leg (Avg.) (0.1 mg/kg IA (Group 4), Day 3): 2.14 mm
Percent change of weight per day (Av) (0.1 mg/kg IA (Group 4), Day 3): 101.00%
Δ clinical score untreated -treated, Avg. Delta (0.1 mg/kg IA (Group 4), Day 3): 0.00 points
Clinical score of treated leg (Avg.) (0.1 mg/kg IA (Group 4), Day 4): 0.00 points
Paw thickness Avg. Delta untreated -treated (0.1 mg/kg IA (Group 4), Day 4): 0.04* mm
Paw thickness of treated leg (Avg.) (0.1 mg/kg IA (Group 4), Day 4): 2.17 mm
Paw thickness of untreated leg (Avg.) (0.1 mg/kg IA (Group 4), Day 4): 2.21 mm
Percent change of weight per day (Av) (0.1 mg/kg IA (Group 4), Day 4): 99.30%
Δ clinical score untreated -treated, Avg. Delta (0.1 mg/kg IA (Group 4), Day 4): 0.00 points
Clinical score of treated leg (Avg.) (0.1 mg/kg IA (Group 4), Day 5): 0.00 points
Paw thickness Avg. Delta untreated -treated (0.1 mg/kg IA (Group 4), Day 5): −0.02 mm
Paw thickness of treated leg (Avg.) (0.1 mg/kg IA (Group 4), Day 5): 2.17 mm
Paw thickness of untreated leg (Avg.) (0.1 mg/kg IA (Group 4), Day 5): 2.15 mm
Percent change of weight per day (Av) (0.1 mg/kg IA (Group 4), Day 5): 91.11%
Δ clinical score untreated -treated, Avg. Delta (0.1 mg/kg IA (Group 4), Day 5): 0.00 points
Clinical score of treated leg (Avg.) (0.1 mg/kg IA (Group 4), Day 6): 1.57** points
Paw thickness Avg. Delta untreated -treated (0.1 mg/kg IA (Group 4), Day 6): 0.06 mm
Paw thickness of treated leg (Avg.) (0.1 mg/kg IA (Group 4), Day 6): 2.57* mm
Paw thickness of untreated leg (Avg.) (0.1 mg/kg IA (Group 4), Day 6): 2.63 mm
Percent change of weight per day (Av) (0.1 mg/kg IA (Group 4), Day 6): 88.63%
Δ clinical score untreated -treated, Avg. Delta (0.1 mg/kg IA (Group 4), Day 6): −0.43 points
Clinical score of treated leg (Avg.) (0.1 mg/kg IA (Group 4), Day 7): 2.00 points
Paw thickness Avg. Delta untreated -treated (0.1 mg/kg IA (Group 4), Day 7): 0.05 mm
